Read-outs that look alike come from different tables or passages of the source.
What was measured:
[1] = molecular target: Human Full Length ARH3 (Homo sapiens (Human), UniProt Q9NX46); test: ARH3 in vitro selectivity assay (TR-FRET); format: biochemical; settings: read-out: ARH3 Biochem IC50
Protocol: ARH3 In vitro selectivity assays were conducted in a total volume of 15 ul in a standard 384 well format.

[2] = molecular target: Human High specific Activity PARP1 (Homo sapiens (Human), UniProt P09874); test: PARP1 in vitro selectivity assay (histone PARylation, luminescence); format: biochemical; settings: read-out: PARP1 Biochem IC50
Sequence of Human High specific Activity PARP1 (P09874 whole entry): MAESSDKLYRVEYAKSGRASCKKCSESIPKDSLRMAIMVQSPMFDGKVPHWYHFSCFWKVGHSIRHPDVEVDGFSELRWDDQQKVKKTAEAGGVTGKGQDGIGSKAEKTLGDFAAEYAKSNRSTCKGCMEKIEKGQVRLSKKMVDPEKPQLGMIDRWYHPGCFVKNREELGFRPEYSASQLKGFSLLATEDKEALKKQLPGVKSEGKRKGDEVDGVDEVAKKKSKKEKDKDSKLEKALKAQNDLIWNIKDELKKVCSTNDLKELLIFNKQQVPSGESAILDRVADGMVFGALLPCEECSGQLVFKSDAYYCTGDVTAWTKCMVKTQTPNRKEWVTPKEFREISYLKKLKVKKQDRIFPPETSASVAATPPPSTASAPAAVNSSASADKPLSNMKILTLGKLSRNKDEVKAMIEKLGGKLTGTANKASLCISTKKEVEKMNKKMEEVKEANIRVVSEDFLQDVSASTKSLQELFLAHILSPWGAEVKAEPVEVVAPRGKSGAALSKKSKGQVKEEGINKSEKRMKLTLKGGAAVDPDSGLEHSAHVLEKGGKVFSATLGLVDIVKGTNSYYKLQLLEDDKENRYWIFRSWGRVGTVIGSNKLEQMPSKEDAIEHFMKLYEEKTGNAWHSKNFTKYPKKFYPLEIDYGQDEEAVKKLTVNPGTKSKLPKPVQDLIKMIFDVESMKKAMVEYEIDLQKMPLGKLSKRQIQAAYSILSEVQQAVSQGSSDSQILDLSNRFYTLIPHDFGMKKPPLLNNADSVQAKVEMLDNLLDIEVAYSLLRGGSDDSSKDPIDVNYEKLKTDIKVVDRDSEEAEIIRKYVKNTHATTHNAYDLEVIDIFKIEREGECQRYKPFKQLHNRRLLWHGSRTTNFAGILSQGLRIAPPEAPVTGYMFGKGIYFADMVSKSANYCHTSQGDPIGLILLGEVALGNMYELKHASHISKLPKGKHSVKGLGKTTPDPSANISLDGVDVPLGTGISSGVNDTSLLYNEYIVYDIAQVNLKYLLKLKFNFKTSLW
Protocol: PARP1 In vitro selectivity assays were conducted as a 10 ul reaction volume in a NUNC Maxisorp 384-well assay plate pre-coated in-house with Histones. […] The wells were then washed with PBS/0.1% Triton X100. PARP1 activity was then detected by measuring the extent of PARylation. […] Luminescence signal was then measured immediately.

[3] = molecular target: Human Full Length PARG (Homo sapiens (Human), UniProt Q86W56); test: PARG enzyme assay (TR-FRET); format: biochemical
Sequence of Human Full Length PARG (Q86W56 whole entry): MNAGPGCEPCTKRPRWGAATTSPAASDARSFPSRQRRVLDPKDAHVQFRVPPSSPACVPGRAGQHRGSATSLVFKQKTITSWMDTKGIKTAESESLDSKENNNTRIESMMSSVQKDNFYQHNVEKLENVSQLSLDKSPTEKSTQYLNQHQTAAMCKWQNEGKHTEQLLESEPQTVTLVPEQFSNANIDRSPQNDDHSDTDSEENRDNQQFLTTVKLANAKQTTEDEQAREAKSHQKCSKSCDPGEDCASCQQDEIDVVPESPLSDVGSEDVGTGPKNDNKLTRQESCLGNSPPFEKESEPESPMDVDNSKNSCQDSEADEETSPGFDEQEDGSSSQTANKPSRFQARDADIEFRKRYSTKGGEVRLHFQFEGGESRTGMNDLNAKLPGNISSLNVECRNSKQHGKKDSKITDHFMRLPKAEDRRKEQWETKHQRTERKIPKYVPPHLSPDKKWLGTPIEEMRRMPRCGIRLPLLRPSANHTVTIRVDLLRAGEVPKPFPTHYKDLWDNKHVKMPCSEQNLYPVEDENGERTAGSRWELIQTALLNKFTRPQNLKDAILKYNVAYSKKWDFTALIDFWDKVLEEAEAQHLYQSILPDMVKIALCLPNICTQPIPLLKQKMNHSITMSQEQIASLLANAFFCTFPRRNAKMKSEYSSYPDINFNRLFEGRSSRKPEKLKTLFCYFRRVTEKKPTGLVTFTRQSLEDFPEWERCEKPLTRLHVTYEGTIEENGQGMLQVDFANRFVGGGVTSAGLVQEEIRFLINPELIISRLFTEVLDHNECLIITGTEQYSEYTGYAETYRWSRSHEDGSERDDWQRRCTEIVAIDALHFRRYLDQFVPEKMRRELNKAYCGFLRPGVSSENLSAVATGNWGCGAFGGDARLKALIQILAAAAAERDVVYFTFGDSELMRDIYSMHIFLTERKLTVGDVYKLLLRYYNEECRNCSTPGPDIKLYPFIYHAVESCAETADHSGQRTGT

[4] = test system: PARG in HeLa cell line; test: PARG cell assay (PAR chain immunofluorescence after MMS); format: cell-based; settings: HeLa cells
Summary of the method: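 HeLa cells were dosed with compound for 1 h, then given MMS at 50 μg/mL final for a further hour. Cells were methanol-fixed, permeabilised and stained overnight at 4° C with anti-PAR monoclonal antibody. Retained nuclear PAR chains, detected by indirect immunofluorescence, indicate PARG inhibition.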

[5] = read-out: PARG Biochem IC50 Geomean
[6] = MMS 50 μg/mL, read-out: PARG Cell IC50 Geomean
[7] = Homo sapiens, MMS 50 μg/mL, read-out: PARG Cell IC50 Geomean
[8] = Homo sapiens, MMS treatment, read-out: PARG Cell IC50
[9] = MMS treatment, read-out: PARG Cell IC50

Sequence of Human Full Length ARH3 (Q9NX46 whole entry): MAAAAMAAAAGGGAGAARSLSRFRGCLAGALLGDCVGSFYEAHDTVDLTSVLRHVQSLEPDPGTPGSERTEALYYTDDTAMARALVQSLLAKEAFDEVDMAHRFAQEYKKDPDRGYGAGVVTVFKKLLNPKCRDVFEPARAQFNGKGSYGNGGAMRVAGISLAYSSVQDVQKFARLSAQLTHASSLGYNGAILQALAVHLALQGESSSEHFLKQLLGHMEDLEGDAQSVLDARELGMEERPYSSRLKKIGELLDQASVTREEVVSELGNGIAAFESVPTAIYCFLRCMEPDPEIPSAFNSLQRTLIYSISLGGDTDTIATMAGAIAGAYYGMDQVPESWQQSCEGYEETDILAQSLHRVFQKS

Row | Compound | IC50 [1] | IC50 [2] | IC50 [3, 5] | IC50 [4, 6] | IC50 [4, 7] | IC50 [4, 8] | IC50 ([3]; read-out: PARG Biochem IC50) | IC50 [4, 9]
1 | Cc1ncsc1Cn1c(=O)n(Cc2cnn(C)c2)c(=O)c2cc(S(=O)(=O)NC3(CF)CC3)ccc21 [Example 572, N-[1-(Fluoromethyl)cyclopropyl]-3-[(1-methylpyrazol-4-yl)methyl]-1-[(4-methylthiazol-5-yl)methyl]-2,4-dioxo-quinazoline-6-sulfonamide] | > 150 µM |  |  |  |  |  | 0.007 µM | 
2 | Cn1cc(Cn2c(=O)c3cc(S(=O)(=O)NC4(CF)CC4)ccc3n(Cc3ccns3)c2=O)cn1 [Example 578, N-[1-(Fluoromethyl)cyclopropyl]-1-(isothiazol-5-ylmethyl)-3-[(1-methylpyrazol-4-yl)methyl]-2,4-dioxo-quinazoline-6-sulfonamide] | > 150 µM |  |  |  |  |  | 0.01 µM | 
3 | Cc1oncc1Cn1c(=O)n(Cc2cnn(C)c2)c(=O)c2cc(S(=O)(=O)NC3(CF)CC3)ccc21 [Example 579, N-[1-(Fluoromethyl)cyclopropyl]-1-[(5-methylisoxazol-4-yl)methyl]-3-[(1-methylpyrazol-4-yl)methyl]-2,4-dioxo-quinazoline-6-sulfonamide] | > 150 µM |  |  |  |  |  | 0.009 µM | 
4 | CCn1c(=O)n(Cc2nnc(C)s2)c(=O)c2cc(S(=O)(=O)NC3(CF)CC3)ccc21 [Example 602, 1-Ethyl-N-[1-(fluoromethyl)cyclopropyl]-3-[(5-methyl-1,3,4-thiadiazol-2-yl)methyl]-2,4-dioxo-quinazoline-6-sulfonamide] | > 150 µM | > 150 µM |  |  |  | 0.135 µM | 0.131 µM | 
5 | CCn1c(=O)n(Cc2nnc(C)s2)c(=O)c2cc(S(=O)(=O)NC3(C)CC3)ccc21 [Example 614, 1-Ethyl-N-(1-methylcyclopropyl)-3-[(5-methyl-1,3,4-thiadiazol-2-yl)methyl]-2,4-dioxo-quinazoline-6-sulfonamide] | > 150 µM |  |  |  |  |  | 0.239 µM | 0.122 µM
6 | Cc1cc(Cn2c(=O)c3cc(S(=O)(=O)NC4(CF)CC4)ccc3n(Cc3sc(C)nc3C)c2=O)on1 [Example 616, 1-[(2,4-Dimethylthiazol-5-yl)methyl]-N-[1-(fluoromethyl)cyclopropyl]-3-[(3-methylisoxazol-5-yl)methyl]-2,4-dioxo-quinazoline-6-sulfonamide] | > 150 µM |  |  |  |  | 0.025 µM | 0.017 µM | 
7 | CCCCn1c(=O)n(Cc2cnn(C)c2)c(=O)c2cc(S(=O)(=O)NC3(CF)CC3)ccc21 [Example 617, 1-Butyl-N-[1-(fluoromethyl)cyclopropyl]-3-[(1-methylpyrazol-4-yl)methyl]-2,4-dioxo-quinazoline-6-sulfonamide] | > 150 µM |  |  |  |  | 0.037 µM | 0.039 µM | 
8 | Cc1cc(Cn2c(=O)c3cc(S(=O)(=O)NC4(CF)CC4)ccc3n(C)c2=O)sn1 [Example 625, N-[1-(Fluoromethyl)cyclopropyl]-1-methyl-3-[(3-methylisothiazol-5-yl)methyl]-2,4-dioxo-quinazoline-6-sulfonamide] | > 150 µM |  |  |  |  | 0.73 µM | 0.597 µM | 
9 | CCc1nnc(Cn2c(=O)c3cc(S(=O)(=O)NC4(CF)CC4)ccc3n(C)c2=O)s1 [Example 628, 3-[(5-Ethyl-1,3,4-thiadiazol-2-yl)methyl]-N-[1-(fluoromethyl)cyclopropyl]-1-methyl-2,4-dioxo-quinazoline-6-sulfonamide] |  |  |  |  |  | 0.736 µM | 2.69 µM | 
10 | Cc1nnc(Cn2c(=O)c3cc(S(=O)(=O)NC4(CF)CC4)ccc3n(CCF)c2=O)s1 [Example 629, 1-(2-Fluoroethyl)-N-[1-(fluoromethyl)cyclopropyl]-3-[(5-methyl-1,3,4-thiadiazol-2-yl)methyl]-2,4-dioxo-quinazoline-6-sulfonamide] | > 150 µM |  |  |  |  | 0.226 µM | 0.082 µM | 
11 | Cc1nnc(Cn2c(=O)c3cc(S(=O)(=O)NC4(CF)CC4)ccc3n(Cc3cnn(C)c3)c2=O)s1 [Example 630, N-[1-(Fluoromethyl)cyclopropyl]-1-[(1-methylpyrazol-4-yl)methyl]-3-[(5-methyl-1,3,4-thiadiazol-2-yl)methyl]-2,4-dioxo-quinazoline-6-sulfonamide] | > 150 µM |  |  |  |  |  | 0.016 µM | 0.542 µM
12 | Cc1nc(Cn2c(=O)n(Cc3nnc(C)s3)c(=O)c3cc(S(=O)(=O)NC4(CF)CC4)ccc32)no1 [Example 631, N-[1-(Fluoromethyl)cyclopropyl]-1-[(5-methyl-1,2,4-oxadiazol-3-yl)methyl]-3-[(5-methyl-1,3,4-thiadiazol-2-yl)methyl]-2,4-dioxo-quinazoline-6-sulfonamide] | > 150 µM |  |  |  |  | 0.706 µM | 0.121 µM | 

More lines, now with the values ahead:

Row | IC50 [1] | IC50 [2] | IC50 [3, 5] | IC50 [4, 6] | IC50 [4, 7] | IC50 [4, 8] | IC50 ([3]; read-out: PARG Biochem IC50) | IC50 [4, 9] | Compound
13 | > 150 µM | > 150 µM | 1.02 µM |  |  |  |  |  | Cn1c(=O)c(=O)n(CC2CC2)c2ccc(S(=O)(=O)NC3(C)CC3)cc21 [Example 22, 1-(Cyclopropylmethyl)-4-methyl-N-(1-methylcyclopropyl)-2,3-dioxo-quinoxaline-6-sulfonamide]
14 | > 150 µM | > 150 µM | 5.55 µM |  |  |  |  |  | CNc1nc2ccc(S(=O)(=O)NC3(C)CC3)cc2n(C)c1=O [Example 41, 4-Methyl-2-(methylamino)-N-(1-methylcyclopropyl)-3-oxo-quinoxaline-6-sulfonamide]
15 | > 150 µM | > 150 µM | 2.18 µM |  |  |  |  |  | Cn1c(C2CC2)nc2ccc(S(=O)(=O)NC3(C)CC3)cc2c1=O [Example 80]
16 | > 150 µM | > 150 µM | 9.44 µM |  |  |  |  |  | CC1(NS(=O)(=O)c2ccc3nc(N4CCCC4)[nH]c(=O)c3c2)CC1 [Example 98]
17 | > 100 µM | > 150 µM | 0.184 µM | 0.124 µM |  |  |  |  | Cc1nc(C)c(Cn2c(=O)n(C)c(=O)c3cc(S(=O)(=O)NC4(C)CC4)ccc32)s1 [Example 133]
18 | > 100 µM | > 150 µM | 0.019 µM |  | 0.028 µM |  |  |  | Cc1ncc(Cn2c(=O)c3cc(S(=O)(=O)NC4(C)CC4)ccc3n(CC3CC3)c2=O)s1 [Example 156]
19 | > 100 µM | > 150 µM | 0.092 µM | 0.088 µM |  |  |  |  | Cc1noc(C)c1Cn1c(=O)c2cc(S(=O)(=O)NC3(C)CC3)ccc2n(CC2CC2)c1=O [Example 158]
20 | > 100 µM | > 150 µM | 0.045 µM | 0.082 µM |  |  |  |  | C#CCn1c(=O)n(Cc2cnc(C)s2)c(=O)c2cc(S(=O)(=O)NC3(C)CC3)ccc21 [Example 161]
21 | > 100 µM | > 150 µM | 0.004 µM | 0.009 µM |  |  |  |  | Cc1ncc(Cn2c(=O)c3cc(S(=O)(=O)NC4(C)CC4)ccc3n(Cc3sc(C)nc3C)c2=O)s1 [Example 162]
22 | > 100 µM | > 150 µM | 0.033 µM |  | 0.063 µM |  |  |  | Cc1nc(C)c(Cn2c(=O)n(Cc3c(C)noc3C)c(=O)c3cc(S(=O)(=O)NC4(C)CC4)ccc32)s1 [Example 165]
23 | > 150 µM | > 150 µM | 0.018 µM | 0.088 µM |  |  |  |  | Cc1cc(Cn2c(=O)n(Cc3cnn(C)c3)c(=O)c3cc(S(=O)(=O)NC4(C)CC4)ccc32)n(C)n1 [Example 173]
24 | > 150 µM | > 150 µM | 0.426 µM |  | 0.46 µM |  |  |  | Cc1cc(Cn2c(=O)c3cc(S(=O)(=O)NC4(C)CC4)ccc3n(C)c2=O)on1 [Example 180]
25 | > 150 µM | > 150 µM | 0.648 µM |  |  |  |  |  | Cc1cc(Cn2nc(Cc3ccccc3)c3ccc(S(=O)(=O)NC4(C)CC4)cc3c2=O)on1 [Example 298]
26 | > 150 µM | > 150 µM | 0.274 µM | 0.201 µM |  |  |  |  | Cc1cc(Cn2nc(CC3CCOCC3)c3ccc(S(=O)(=O)NC4(C)CC4)cc3c2=O)on1 [Example 308]
27 | > 150 µM | > 150 µM | 0.549 µM |  |  |  |  |  | Cc1cc(Cn2cc(C(=O)C3CC3)c3ccc(S(=O)(=O)NC4(C)CC4)cc3c2=O)on1 [Example 311, 4-(Cyclopropanecarbonyl)-N-(1-methylcyclopropyl)-2-[(3-methylisoxazol-5-yl)methyl]-1-oxo-isoquinoline-7-sulfonamide]
28 | > 150 µM | > 150 µM |  |  |  | 0.009 µM | 0.006 µM |  | Cc1nc(C)c(Cn2c(=O)n(Cc3cnn(C)c3)c(=O)c3cc(S(=O)(=O)NC4(CF)CC4)ccc32)s1 [Example 463, 1-[(2,4-Dimethylthiazol-5-yl)methyl]-N-[1-(fluoromethyl)cyclopropyl]-3-[(1-methylpyrazol-4-yl)methyl]-2,4-dioxo-quinazoline-6-sulfonamide]
